Source: patent US20250205192A1, “METHODS AND MATERIALS FOR TREATING PANCREATIC DISEASES AND DISORDERS” (MAYO FOUNDATION FOR MEDICAL EDUCATION AND RESEARCH, priority 2022, published 2025)
“Also recorded” adds a separate entry of the source.

System: male CD-1 mice
Assay: Intraperitoneal GTL injection in mice, peritoneal cavity assessed for nodules, adhesions and fibrosis after 1 week
Type: in vivo
Procedure: 25% glyceryl trilinoleate (GTL) homogenous suspension in saline was prepared by heating, mixing, and sonication.
Agent 767 was dissolved in a 25% sonicated suspension of GTL in saline. This was prepared by adding […] of the 25% GTL suspension to 10 mg of 767 at room temperature. The solution was then mixed, heated gently to 37-40° C., and sonicated to ensure homogeneous emulsion.
Each experiment used 4 male CD-1 mice (35-39 grams).
Two mice were each given 0.2 mL of 25% GTL by intraperitoneal injection.
Two mice were given 0.2 mL of 767 in 25% GTL by intraperitoneal injection.
Mice were sacrificed after 1 week, and the peritoneal cavity was assessed for nodules.

SMILES | adherence of duodenum, pancreas and spleen after GTL alone (en bloc excised organs from mice given GTL intraperitoneally) | peritoneal appearance (nodules and strands) after GTL alone (mice given 0.2 mL of 25% GTL by intraperitoneal injection, 1 week, compared with control mice) | pancreatitis abnormalities by blood urea nitrogen (BUN), glucose or albumin levels after GTL alone (mice given GTL intraperitoneally) | fibrosis of the wall of the nodules (Sirius red stain) after GTL alone (nodules from mice given GTL intraperitoneally) | nodules in the peritoneal cavity and in the vicinity of the pancreas (mice given 0.2 mL of 767 in 25% GTL by intraperitoneal injection, sacrificed after 1 week, compared with GTL only) | adhesions in the peritoneal cavity in spaces away from the pancreas (mice given 767 in 25% GTL intraperitoneally, 1 week)
CCCCC/C=C\C/C=C\CCCCCCCC(=O)OCC(COC(=O)CCCCCCC/C=C\C/C=C\CCCCC)OC(=O)CCCCCCC/C=C\C/C=C\CCCCC [GTL, glyceryl trilinoleate] | adherent and difficult to separate | had nodules and strands; also recorded: had clearly discernable nodules | did not exhibit pancreatitis abnormalities | strongly positive for fibrosis | – | –
CCCCCCCCCCC[C@@H](C[C@@H]1OC(=O)[C@H]1CC)OC(=O)[C@H](C)NC=O [compound 767] | – | – | – | – | did not have noticeable nodules | prevented adhesions
